What was measured:
[1] = target: Brd4 bromodomain 1 (BRD4(1)) (Homo sapiens, UniProt O60885); experiment: Inhibition of tetra-acetylated histone H4 binding to Brd4 bromodomain 1, measured by FRET (HTRF); parameters: made in house; host or cells: E. coli BL21(DE3); details: 2 h at room temperature
In short: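 Inhibition was read as a drop in 665 nm relative to 620 nm HTRF signal after 2 h at room temperature, with IC50 from dose-response curves in duplicate wells. Reactions held 200 nM E. coli-expressed His-tagged bromodomain and 25-50 nM biotinylated tetra-acetylated histone H4 peptide. Buffer was 30 mM HEPES pH 7.4 with KF, CHAPS, BSA and 0.2% DMSO.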

hIL-6 mRNA = experiment: Inhibition of hIL-6 mRNA transcription in LPS-stimulated U937 macrophages; assay type: cell-based, Human; details: 1 h pretreatment, LPS 3 h; for IC50: Homo sapiens, U-937, PMA-differentiated U937 cells, read-out: IL-6 activity
In short: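 PMA-differentiated U937 macrophages (60 ng/mL PMA, 3 days) pretreated 1 h with compound in 0.1% DMSO, then stimulated with 1 ug/mL E. coli LPS for 3 h at 37° C. IL-6 mRNA quantified by one-step TaqMan qRT-PCR, normalized to cyclophilin; fold expression relative to control, triplicate wells.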

[2] = tested on: c-myc in Human AML MV4-11 cells; experiment: Inhibition of cMYC expression (mRNA, real-time PCR) in MV4-11 cells; assay type: cell-based; details: 3 h treatment, cMYC mRNA by real-time PCR
In short: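 MV4-11 cells in IMDM with 10% FBS were treated with increasing compound concentrations (DMSO 0.1%) for 3 h at 37 °C, in triplicate. Isolated mRNA was quantified by one-step TaqMan RT-qPCR, cMYC Ct normalized to cyclophilin, and fold expression given relative to DMSO control.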

Human AML MV-4-11 cells = experiment: Inhibition of cell proliferation in MV4-11 cells (CellTiter Aqueous One); assay type: cell-based; details: for IC50: MV4-11, 72 h
In short: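 MV4-11 cells, 5×10^4 per well in IMDM with 10% FBS, were exposed to increasing compound concentrations or 0.1% DMSO for 72 h at 37 °C in triplicate. Viability was read by MTS (CellTiter Aqueous One) absorbance at 490 nm after 3-4 h. IC50 was derived from background-corrected signal relative to DMSO.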

Row | Structure (SMILES) | IC50 [1] | IC50 (hIL-6 mRNA) | IC50 [2] | IC50 (Human AML MV-4-11 cells) | IL-6 activity (hIL-6 mRNA; PMA-differentiated U937 cells) | Cell Proliferation activity (Human AML MV-4-11 cells; 72 h)
1 | Cc1nc2c(-c3scnc3C)cc(-c3c(C)noc3C)cc2[nH]1 [Example Compound 104, 3,5-dimethyl-4-(2-methyl-4-(4-methyl-thiazol-5-yl)-1H-benzo[d]imidazol-6-yl)isoxazole] | ≤ 300 nM | ≤ 300 nM | 300 to 3000 nM | 300 to 3000 nM | – | –
2 | Cc1nc2c(-c3c(C)cnn3C)cc(-c3c(C)noc3C)cc2[nH]1 [Example Compound 169, 4-(4-(1,4-dimethyl-1H-pyrazol-5-yl)-2-methyl-1H-benzo[d]imidazol-6-yl)-3,5-dimethyl isoxazole] | ≤ 300 nM | 300 to 3000 nM | 300 to 3000 nM | 300 to 3000 nM | – | –
3 | COc1ccc(Cl)cc1-c1cc(-c2c(C)noc2C)cc2[nH]c(C)nc12 [Example Compound 107, 4-(4-(5-chloro-2-methoxy-phenyl)-2-methyl-1H-benzo[d]imidazol-6-yl)-3,5-dimethyl isoxazole] | ≤ 300 nM | 300 to 3000 nM | 300 to 3000 nM | 300 to 3000 nM | – | –
4 | Cc1noc(C)c1-c1cc(-c2c(C)nn(C)c2C)c2c(c1)ncn2C [Example Compound 182, 3,5-dimethyl-4-(1-methyl-7-(1,3,5-trimethyl-1H-pyrazol-4-yl)-1H-benzo[d]imidazol-5-yl)isoxazole] | ≤ 300 nM | ≤ 300 nM | ≤ 300 nM | 300 to 3000 nM | – | –
5 | COc1ncc(F)cc1-c1cc(-c2c(C)noc2C)cc2[nH]c(C)nc12 [Example Compound 131, 4-(4-(5-fluoro-2-methoxy-pyridin-3-yl)-2-methyl-1H-benzo[d]imidazol-6-yl)-3,5-dimethyl isoxazole] | 300 to 3000 nM | 300 to 3000 nM | 300 to 3000 nM | 300 to 3000 nM | – | –
6 | COc1ccc(F)c(-c2cc(-c3c(C)noc3C)cc3[nH]c(C)nc23)c1 [Example Compound 108, 4-(4-(2-fluoro-5-methoxy-phenyl)-2-methyl-1H-benzo[d]imidazol-6-yl)-3,5-dimethyl isoxazole] | ≤ 300 nM | 300 to 3000 nM | 300 to 3000 nM | 300 to 3000 nM | – | –
7 | COc1nc(C)ccc1-c1cc(-c2c(C)noc2C)cc2[nH]c(C)nc12 [Example Compound 135, 4-(4-(2-methoxy-6-methyl-pyridin-3-yl)-2-methyl-1H-benzo[d]imidazol-6-yl)-3,5-dimethyl isoxazole] | ≤ 300 nM | 300 to 3000 nM | ≤ 300 nM | 300 to 3000 nM | – | –
8 | Cc1nc2c(-c3cscc3C)cc(-c3c(C)noc3C)cc2[nH]1 [Example Compound 166, 3,5-dimethyl-4-(2-methyl-4-(4-methyl-thiophen-3-yl)-1H-benzo[d]imidazol-6-yl)isoxazole] | ≤ 300 nM | 300 to 3000 nM | 300 to 3000 nM | 300 to 3000 nM | – | –
9 | CNC(=O)c1onc(C)c1-c1cc(-c2c(C)noc2C)cc2[nH]c(C)nc12 [Example Compound 67, 4-(5-(3,5-dimethyl-isoxazol-4-yl)-2-methyl-1H-benzo[d]imidazol-7-yl)-N,3-dimethyl isoxazole-5-carboxamide] | ≤ 300 nM | – | 300 to 3000 nM | 3000 to 30000 nM | Not active | –
10 | Cc1noc(C)c1-c1cc(-c2ccnn2C)cc2[nH]cnc12 [Example Compound 230, 3,5-dimethyl-4-(6-(1-methyl-1H-pyrazol-5-yl)-1H-benzo[d]imidazol-4-yl)isoxazole] | 300 to 3000 nM | 3000 to 30000 nM | 300 to 3000 nM | – | – | Not active
11 | Cc1noc(C)c1-c1cc(-c2c(C)noc2C)c2nc(C3CCOCC3)[nH]c2c1 [Example Compound 228, 4,4′-(2-(tetrahydro-2H-pyran-4-yl)-1H-benzo[d]imidazole-4,6-dyl)bis(3,5-dimethylisoxazole)] | ≤ 300 nM | 300 to 3000 nM | 300 to 3000 nM | 300 to 3000 nM | – | –
12 | Cc1nc2c(-c3ccc4nncn4c3)cc(-c3c(C)noc3C)cc2[nH]1 [Example Compound 156, 4-(4-([1,2,4]triazolo [4,3-a]pyridin-6-yl)-2-methyl-1H-benzo[d]imidazol-6-yl)-3,5-dimethyl isoxazole] | ≤ 300 nM | 3000 to 30000 nM | 300 to 3000 nM | 3000 to 30000 nM | – | –
13 | Cc1nc2c(-c3cc(F)ccc3C#N)cc(-c3c(C)noc3C)cc2[nH]1 [Example Compound 94, 2-(6-(3,5-dimethyl-isoxazol-4-yl)-2-methyl-1H-benzo[d]imidazol-4-yl)-4-fluoro-benzonitrile] | ≤ 300 nM | 300 to 3000 nM | 300 to 3000 nM | 300 to 3000 nM | – | –
14 | Cc1noc(C)c1-c1cc(-c2c(C)noc2C)c2c(c1)ncn2C [Example Compound 93, 4,4′-(1-methyl-1H-benzo[d]imidazole-5,7-diyl)bis(3,5-dimethylisoxazole)] | ≤ 300 nM | ≤ 300 nM | ≤ 300 nM | 300 to 3000 nM | – | –

Further lines, with some results ahead:

Row | IC50 [1] | IC50 (hIL-6 mRNA) | IC50 [2] | IC50 (Human AML MV-4-11 cells) | Structure (SMILES) | IL-6 activity (hIL-6 mRNA; PMA-differentiated U937 cells) | Cell Proliferation activity (Human AML MV-4-11 cells; 72 h)
15 | ≤ 300 nM | 300 to 3000 nM | 300 to 3000 nM | 300 to 3000 nM | Cc1noc(C)c1-c1cc(-c2cccc(C#N)c2)c2nc[nH]c2c1 [Example Compound 2, 3-(6-(3,5-dimethylisoxazol-4-yl)-1H-benzo[d]imidazol-4-yl) benzonitrile] | – | –
16 | ≤ 300 nM | 300 to 3000 nM | 300 to 3000 nM | 300 to 3000 nM | Cc1noc(C)c1-c1cc(-c2c(C)noc2C)c2cn[nH]c2c1 [Example Compound 87, 4,4′-(1H-indazole-4,6-diyl)bis(3,5-dimethylisoxazole)] | – | –
17 | ≤ 300 nM | 300 to 3000 nM | 300 to 3000 nM | 300 to 3000 nM | Cc1nc2c(Oc3cccnc3C)cc(-c3c(C)noc3C)cc2[nH]1 [Example Compound 155, 3,5-dimethyl-4-(2-methyl-4-((2-methylpyridin-3-yl)oxy)-1H-benzo[d]imidazol-6-yl)isoxazole] | – | –
18 | ≤ 300 nM | ≤ 300 nM | 300 to 3000 nM | 300 to 3000 nM | COc1cccc(-c2cc(-c3c(C)noc3C)cc3[nH]c(C)nc23)c1F [Example Compound 152, 4-(4-(2-fluoro-3-methoxy-phenyl)-2-methyl-1H-benzo[d]imidazol-6-yl)-3,5-dimethyl isoxazole] | – | –
19 | ≤ 300 nM | ≤ 300 nM | ≤ 300 nM | 300 to 3000 nM | Cc1nc2c(-c3ccccc3F)cc(-c3c(C)noc3C)cc2[nH]1 [Example Compound 91, 4-(4-(2-fluoro-phenyl)-2-methyl-1H-benzo[d]imidazol-6-yl)-3,5-dimethyl isoxazole] | – | –
20 | ≤ 300 nM | ≤ 300 nM | ≤ 300 nM | ≤ 300 nM | COCc1ccccc1-c1cc(-c2c(C)noc2C)cc2[nH]c(C)nc12 [Example Compound 117, 4-(4-(2-(methoxy-methyl)phenyl)-2-methyl-1H-benzo[d]imidazol-6-yl)-3,5-dimethyl-isoxazole] | – | –
21 | ≤ 300 nM | 300 to 3000 nM | 300 to 3000 nM | 300 to 3000 nM | Cc1nc2c(Nc3cccnc3C)cc(-c3c(C)noc3C)cc2[nH]1 [Example Compound 143, 6-(3,5-dimethylisoxazol-4-yl)-2-methyl-N-(2-methylpyridin-3-yl)-1H-benzo[d]imidazol-4-amine] | – | –
22 | ≤ 300 nM | 300 to 3000 nM | ≤ 300 nM | 300 to 3000 nM | Cc1nc2c(-c3cccnc3)cc(-c3c(C)noc3C)cc2[nH]1 [Example Compound 79, 3,5-dimethyl-4-(2-methyl-4-(pyridin-3-yl)-1H-benzo[d]imidazol-6-yl)isoxazole] | – | –
23 | ≤ 300 nM | 300 to 3000 nM | 300 to 3000 nM | 300 to 3000 nM | COc1ncccc1-c1cc(-c2c(C)noc2C)cc2[nH]c(C)nc12 [Example Compound 118, 4-(4-(2-methoxy-pyridin-3-yl)-2-methyl-1H-benzo[d]imidazol-6-yl)-3,5-dimethyl isoxazole] | – | –
24 | 300 to 3000 nM | ≤ 300 nM | 300 to 3000 nM | 300 to 3000 nM | Cc1noc(C)c1-c1cc(-c2cccnc2C(F)(F)F)c2[nH]ncc2c1 [Example Compound 128, 3,5-dimethyl-4-(7-(2-(trifluoromethyl)pyridin-3-yl)-1H-indazol-5-yl)isoxazole] | – | –
25 | ≤ 300 nM | ≤ 300 nM | ≤ 300 nM | ≤ 300 nM | Cc1nc2c(-c3ccccc3Cl)cc(-c3c(C)noc3C)cc2[nH]1 [Example Compound 144, 4-(4-(2-chloro-phenyl)-2-methyl-1H-benzo[d]imidazol-6-yl)-3,5-dimethyl isoxazole] | – | –
26 | 300 to 3000 nM | 300 to 3000 nM | 300 to 3000 nM | 300 to 3000 nM | Cc1noc(C)c1-c1cc(-c2ccccc2CN(C)C)c2nc[nH]c2c1 [Example Compound 28, 1-(2-(6-(3,5-dimethyl-isoxazol-4-yl)-1H-benzo[d]imidazol-4-yl)phenyl)-N,N-dimethyl methanamine] | – | –

Source: US9999616B2 (ZENITH EPIGENETICS LTD., priority 2013, dated 2018)
